From ChEMBL document CHEMBL3621068, “Synthesis and biological evaluation of a new class of quinazolinoneazoles as potential antimicrobial agents and their interactions with calf thymus DNA and human serum albumin” (Medchemcomm, 2015)
Converted amounts (≈) assume the structure as drawn.

What was measured:
Format in all cases: functional
Cyberlindnera jadinii = experiment: Antifungal activity against Candida utilis ATCC 9950 after 24 hrs by micro broth dilution assay; conditions: Williopsis jadinii, ATCC 9950, 24 h
Aspergillus flavus = experiment: Antifungal activity against Aspergillus flavus ATCC 204304 after 24 hrs by micro broth dilution assay; conditions: ATCC 204304, 24 h
Saccharomyces cerevisiae = experiment: Antifungal activity against Beer yeast ATCC 9763 after 24 hrs by micro broth dilution assay; conditions: ATCC 9763, 24 h
Candida albicans = experiment: Antifungal activity against Candida albicans ATCC 10231 after 24 hrs by micro broth dilution assay; conditions: ATCC 10231, 24 h
Candida = experiment: Antifungal activity against Candida mycoderma ATCC 9888 after 24 hrs by micro broth dilution assay; conditions: ATCC 9888, 24 h
Micrococcus luteus = experiment: Antibacterial activity against Micrococcus luteus ATCC 4698 after 24 hrs by micro broth dilution assay; conditions: ATCC 4698, 24 h
Staphylococcus aureus [1] = experiment: Antibacterial activity against methicillin-resistant Staphylococcus aureus N315 after 24 hrs by micro broth dilution assay; conditions: N315, 24 h
Staphylococcus aureus [2] = experiment: Antibacterial activity against Staphylococcus aureus ATCC 25923 after 24 hrs by micro broth dilution assay; conditions: ATCC 25923, 24 h
Bacillus spizizenii = experiment: Antibacterial activity against Bacillus subtilis ATCC 6633 after 24 hrs by micro broth dilution assay; conditions: ATCC 6633, 24 h
Pseudomonas aeruginosa = experiment: Antibacterial activity against Pseudomonas aeruginosa ATCC 27853 a after 24 hrs by micro broth dilution assay; conditions: ATCC 27853, 24 h
Escherichia coli = experiment: Antibacterial activity against Escherichia coli DH52 after 24 hrs by micro broth dilution assay; conditions: DH52, 24 h
Bacillus sp. = experiment: Antibacterial activity against Bacillus proteus ATCC 13315 after 24 hrs by micro broth dilution assay; conditions: Bacillus sp. (in: firmicutes), ATCC 13315, 24 h
[3] = Antibacterial activity against Eberthella typhosa ATCC 14028 after 24 hrs by micro broth dilution assay; conditions: ATCC 14028, 24 h

SMILES	MIC (Cyberlindnera jadinii) [µM]	MIC (Aspergillus flavus) [µM]	MIC (Saccharomyces cerevisiae) [µM]	MIC (Candida albicans) [µM]	MIC (Candida) [µM]	MIC (Micrococcus luteus) [µM]	MIC (Staphylococcus aureus [1]) [µM]	MIC (Staphylococcus aureus [2]) [µM]	MIC (Bacillus spizizenii) [µM]	MIC (Pseudomonas aeruginosa) [µM]	MIC (Escherichia coli) [µM]	MIC (Bacillus sp.) [µM]	MIC [3] [µM]
Cc1ncc([N+](=O)[O-])n1CCCCn1cnc2cc(F)ccc2c1=O	50 (≈ 17.3 µg/mL)	20 (≈ 6.91 µg/mL)	50 (≈ 17.3 µg/mL)	20 (≈ 6.91 µg/mL)	50 (≈ 17.3 µg/mL)	50 (≈ 17.3 µg/mL)	20 (≈ 6.91 µg/mL)	50 (≈ 17.3 µg/mL)	50 (≈ 17.3 µg/mL)	> 1480	50 (≈ 17.3 µg/mL)	20 (≈ 6.91 µg/mL)	20 (≈ 6.91 µg/mL)
O=c1c2ccc(F)cc2ncn1CCBr	940 (≈ 255 µg/mL)	1890 (≈ 512 µg/mL)	940 (≈ 255 µg/mL)	940 (≈ 255 µg/mL)	> 1890	470 (≈ 127 µg/mL)	940 (≈ 255 µg/mL)	> 1890	1890 (≈ 512 µg/mL)	> 1890	1890 (≈ 512 µg/mL)	470 (≈ 127 µg/mL)	> 1890
O=c1c2ccc(Cl)cc2ncn1CCCCCCCCCCBr	320 (≈ 128 µg/mL)	> 1280	640 (≈ 256 µg/mL)	> 1280	> 1280	320 (≈ 128 µg/mL)	640 (≈ 256 µg/mL)	> 1280	1280 (≈ 512 µg/mL)	> 1280	640 (≈ 256 µg/mL)	320 (≈ 128 µg/mL)	> 1280
Cc1ncc([N+](=O)[O-])n1CCCCCn1cnc2cc(Cl)ccc2c1=O	20 (≈ 7.52 µg/mL)	20 (≈ 7.52 µg/mL)	40 (≈ 15 µg/mL)	20 (≈ 7.52 µg/mL)	20 (≈ 7.52 µg/mL)	40 (≈ 15 µg/mL)	20 (≈ 7.52 µg/mL)	40 (≈ 15 µg/mL)	20 (≈ 7.52 µg/mL)	> 1360	20 (≈ 7.52 µg/mL)	20 (≈ 7.52 µg/mL)	20 (≈ 7.52 µg/mL)
O=c1c2ccc(Cl)cc2ncn1CCCCCCn1cnc([N+](=O)[O-])c1	340 (≈ 128 µg/mL)	170 (≈ 63.9 µg/mL)	90 (≈ 33.8 µg/mL)	40 (≈ 15 µg/mL)	40 (≈ 15 µg/mL)	40 (≈ 15 µg/mL)	170 (≈ 63.9 µg/mL)	340 (≈ 128 µg/mL)	40 (≈ 15 µg/mL)	340 (≈ 128 µg/mL)	170 (≈ 63.9 µg/mL)	90 (≈ 33.8 µg/mL)	340 (≈ 128 µg/mL)
Cc1ncc([N+](=O)[O-])n1CCCCCn1cnc2cc(F)ccc2c1=O	20 (≈ 7.19 µg/mL)	20 (≈ 7.19 µg/mL)	20 (≈ 7.19 µg/mL)	40 (≈ 14.4 µg/mL)	40 (≈ 14.4 µg/mL)	20 (≈ 7.19 µg/mL)	20 (≈ 7.19 µg/mL)	40 (≈ 14.4 µg/mL)	20 (≈ 7.19 µg/mL)	> 1420	40 (≈ 14.4 µg/mL)	20 (≈ 7.19 µg/mL)	20 (≈ 7.19 µg/mL)
O=c1c2ccc(Cl)cc2ncn1CCBr	890 (≈ 256 µg/mL)	> 1780	890 (≈ 256 µg/mL)	> 1780	> 1780	450 (≈ 129 µg/mL)	890 (≈ 256 µg/mL)	> 1780	1780 (≈ 512 µg/mL)	> 1780	1780 (≈ 512 µg/mL)	890 (≈ 256 µg/mL)	> 1780
O=c1c2ccc(F)cc2ncn1CCCCCBr	410 (≈ 128 µg/mL)	820 (≈ 257 µg/mL)	820 (≈ 257 µg/mL)	820 (≈ 257 µg/mL)	> 1630	410 (≈ 128 µg/mL)	820 (≈ 257 µg/mL)	> 1630	1630 (≈ 510 µg/mL)	> 1630	1630 (≈ 510 µg/mL)	410 (≈ 128 µg/mL)	> 1630
O=c1c2ccc(Cl)cc2ncn1CCn1ccnc1	470 (≈ 129 µg/mL)	930 (≈ 255 µg/mL)	930 (≈ 255 µg/mL)	930 (≈ 255 µg/mL)	> 1860	470 (≈ 129 µg/mL)	930 (≈ 255 µg/mL)	> 1860	> 1860	930 (≈ 255 µg/mL)	1860 (≈ 511 µg/mL)	1860 (≈ 511 µg/mL)	> 1860
Cc1ncc([N+](=O)[O-])n1CCCCCCCCCCn1cnc2cc(Cl)ccc2c1=O	20 (≈ 8.92 µg/mL)	20 (≈ 8.92 µg/mL)	40 (≈ 17.8 µg/mL)	20 (≈ 8.92 µg/mL)	40 (≈ 17.8 µg/mL)	20 (≈ 8.92 µg/mL)	40 (≈ 17.8 µg/mL)	20 (≈ 8.92 µg/mL)	20 (≈ 8.92 µg/mL)	> 1150	20 (≈ 8.92 µg/mL)	20 (≈ 8.92 µg/mL)	20 (≈ 8.92 µg/mL)
Cc1ncc([N+](=O)[O-])n1CCCCCCCCCCn1cnc2cc(F)ccc2c1=O	20 (≈ 8.59 µg/mL)	40 (≈ 17.2 µg/mL)	20 (≈ 8.59 µg/mL)	40 (≈ 17.2 µg/mL)	20 (≈ 8.59 µg/mL)	40 (≈ 17.2 µg/mL)	20 (≈ 8.59 µg/mL)	20 (≈ 8.59 µg/mL)	20 (≈ 8.59 µg/mL)	> 1190	20 (≈ 8.59 µg/mL)	20 (≈ 8.59 µg/mL)	20 (≈ 8.59 µg/mL)
O=c1c2ccc(F)cc2ncn1CCn1cnc([N+](=O)[O-])c1	420 (≈ 127 µg/mL)	> 1690	210 (≈ 63.7 µg/mL)	50 (≈ 15.2 µg/mL)	840 (≈ 255 µg/mL)	50 (≈ 15.2 µg/mL)	210 (≈ 63.7 µg/mL)	840 (≈ 255 µg/mL)	50 (≈ 15.2 µg/mL)	> 1690	840 (≈ 255 µg/mL)	420 (≈ 127 µg/mL)	420 (≈ 127 µg/mL)
O=c1c2ccc(F)cc2ncn1CCCCCCCCCCBr	330 (≈ 126 µg/mL)	1340 (≈ 514 µg/mL)	670 (≈ 257 µg/mL)	670 (≈ 257 µg/mL)	> 1340	670 (≈ 257 µg/mL)	330 (≈ 126 µg/mL)	> 1340	1340 (≈ 514 µg/mL)	> 1340	1340 (≈ 514 µg/mL)	330 (≈ 126 µg/mL)	> 1340
O=c1c2ccc(Cl)cc2ncn1CCCCCCBr	740 (≈ 254 µg/mL)	> 1490	740 (≈ 254 µg/mL)	> 1490	> 1490	370 (≈ 127 µg/mL)	740 (≈ 254 µg/mL)	> 1490	1490 (≈ 512 µg/mL)	> 1490	1490 (≈ 512 µg/mL)	740 (≈ 254 µg/mL)	> 1490
Cc1ncc([N+](=O)[O-])n1CCCCn1cnc2cc(Cl)ccc2c1=O	20 (≈ 7.24 µg/mL)	40 (≈ 14.5 µg/mL)	40 (≈ 14.5 µg/mL)	20 (≈ 7.24 µg/mL)	40 (≈ 14.5 µg/mL)	40 (≈ 14.5 µg/mL)	20 (≈ 7.24 µg/mL)	40 (≈ 14.5 µg/mL)	40 (≈ 14.5 µg/mL)	> 1420	40 (≈ 14.5 µg/mL)	20 (≈ 7.24 µg/mL)	20 (≈ 7.24 µg/mL)
CCn1cc(C(=O)O)c(=O)c2cc(F)c(N3CCNCC3)cc21 [NORFLOXACIN]	> 1600	> 1600	> 1600	> 1600	> 1600	10 (≈ 3.19 µg/mL)	30 (≈ 9.58 µg/mL)	10 (≈ 3.19 µg/mL)	10 (≈ 3.19 µg/mL)	10 (≈ 3.19 µg/mL)	50 (≈ 16 µg/mL)	10 (≈ 3.19 µg/mL)	10 (≈ 3.19 µg/mL)
